Laboratory results from ChEMBL document CHEMBL6153147 (J Med Chem, 2025).

Legend:
[1] = Cmax in C57BL/6 mouse at 1 mg/kg, iv measured for 0.5 to […] htr by LC-MS/MS analysis; assay type: ADME, organism-based; settings: in vivo, time 0.5-12 hrs
[2] = AUC (0 to t) in C57BL/6 mouse at 10 mg/kg, po measured for 0.5 to […] htr by LC-MS/MS analysis; assay type: ADME, organism-based; settings: in vivo, time 0.5-12 hrs
[3] = Oral bioavailability in C57BL/6 mouse at 10 mg/kg measured for 0.5 to […] htr by LC-MS/MS analysis; assay type: ADME, organism-based; settings: in vivo, time 0.5-12 hrs
[4] = Metabolic stability in dog liver microsomes assessed as half life preincubated for 5 mins followed by NADPH addition by LC-MS/MS analysis; assay type: ADME, Canis lupus familiaris, Microsome
[5] = Metabolic stability in human liver microsomes assessed as intrinsic clearance in microsome measured per mg protein preincubated for 5 mins followed by NADPH addition by LC-MS/MS analysis; assay type: ADME; settings: read-out: CLH
[6] = Metabolic stability in dog liver microsomes assessed as intrinsic clearance preincubated for 5 mins followed by NADPH addition by LC-MS/MS analysis; assay type: ADME, Canis lupus familiaris, Microsome; settings: read-out: CLH
[7] = AUC (0 to infinity) in C57BL/6 mouse at 10 mg/kg, po measured for 0.5 to 12 htr by LC-MS/MS analysis; assay type: ADME, organism-based; settings: in vivo, time 0.5-12 hrs
[8] = Cmax in C57BL/6 mouse at 10 mg/kg, po measured for 0.5 to […] htr by LC-MS/MS analysis; assay type: ADME, organism-based; settings: in vivo, time 0.5-12 hrs
[9] = Half life in C57BL/6 mouse at 10 mg/kg, po measured for 0.5 to 12 htr by LC-MS/MS analysis; assay type: ADME, organism-based; settings: in vivo, time 0.5-12 hrs
[10] = Metabolic stability in mouse liver microsomes assessed as intrinsic clearance preincubated for 5 mins followed by NADPH addition by LC-MS/MS analysis; assay type: ADME, Microsome; settings: read-out: CLH
[11] = Tmax in C57BL/6 mouse at 10 mg/kg, po measured for 0.5 to 12 htr by LC-MS/MS analysis; assay type: ADME, organism-based; settings: in vivo, time 0.5-12 hrs
[12] = Metabolic stability in human liver microsomes assessed as intrinsic clearance preincubated for 5 mins followed by NADPH addition by LC-MS/MS analysis; assay type: ADME, Microsome; settings: read-out: CLH
[13] = Metabolic stability in dog liver microsomes assessed as intrinsic clearance in microsome measured per mg protein preincubated for 5 mins followed by NADPH addition by LC-MS/MS analysis; assay type: ADME, Canis lupus familiaris; settings: read-out: CLH
[14] = Half life in C57BL/6 mouse at 1 mg/kg, iv measured for 0.5 to 12 htr by LC-MS/MS analysis; assay type: ADME, organism-based; settings: in vivo, time 0.5-12 hrs
[15] = Clearance in C57BL/6 mouse at 1 mg/kg, iv measured for 0.5 to […] htr by LC-MS/MS analysis; assay type: ADME, organism-based; settings: in vivo, time 0.5-12 hrs
[16] = Metabolic stability in human liver microsomes assessed as half life preincubated for 5 mins followed by NADPH addition by LC-MS/MS analysis; assay type: ADME, Microsome
[17] = Tmax in C57BL/6 mouse at 1 mg/kg, iv measured for 0.5 to 12 htr by LC-MS/MS analysis; assay type: ADME, organism-based; settings: in vivo, time 0.5-12 hrs
[18] = AUC (0 to t) in C57BL/6 mouse at 1 mg/kg, iv measured for 0.5 to […] htr by LC-MS/MS analysis; assay type: ADME, organism-based; settings: in vivo, time 0.5-12 hrs
[19] = Metabolic stability in mouse liver microsomes assessed as half life preincubated for 5 mins followed by NADPH addition by LC-MS/MS analysis; assay type: ADME, Microsome
[20] = MRT (0 to t) in C57BL/6 mouse at 10 mg/kg, po measured for 0.5 to 12 htr by LC-MS/MS analysis; assay type: ADME, organism-based; settings: in vivo, time 0.5-12 hrs
[21] = Volume of distribution at steady state in C57BL/6 mouse at 1 mg/kg, iv measured for 0.5 to 12 htr by LC-MS/MS analysis; assay type: ADME, organism-based; settings: in vivo, time 0.5-12 hrs, read-out: Vdss
[22] = Metabolic stability in mouse liver microsomes assessed as intrinsic clearance in microsome measured per mg protein preincubated for 5 mins followed by NADPH addition by LC-MS/MS analysis; assay type: ADME; settings: read-out: CLH
[23] = AUC (0 to infinity) in C57BL/6 mouse at 1 mg/kg, iv measured for 0.5 to 12 htr by LC-MS/MS analysis; assay type: ADME, organism-based; settings: in vivo, time 0.5-12 hrs
[24] = C0 in C57BL/6 mouse at 1 mg/kg, iv measured for 0.5 to 12 htr by LC-MS/MS analysis; assay type: ADME, organism-based; settings: in vivo, time 0.5-12 hrs
[25] = MRT (0 to t) in C57BL/6 mouse at 1 mg/kg, iv measured for 0.5 to 12 htr by LC-MS/MS analysis; assay type: ADME, organism-based; settings: in vivo, time 0.5-12 hrs
K562 = experiment: cells; settings: Homo sapiens
KG-1 = experiment: cells; settings: Homo sapiens
[26] = molecular target: Serine/threonine-protein kinase PLK1 (Homo sapiens, UniProt P53350); experiment: Inhibition of human PLK1 using ATF2 as substrate incubated for 40 mins in presence of [gamma-33P]ATP/Mg acetate by scintillation counting analysis
Chain of Serine/threonine-protein kinase PLK1 (P53350 whole entry): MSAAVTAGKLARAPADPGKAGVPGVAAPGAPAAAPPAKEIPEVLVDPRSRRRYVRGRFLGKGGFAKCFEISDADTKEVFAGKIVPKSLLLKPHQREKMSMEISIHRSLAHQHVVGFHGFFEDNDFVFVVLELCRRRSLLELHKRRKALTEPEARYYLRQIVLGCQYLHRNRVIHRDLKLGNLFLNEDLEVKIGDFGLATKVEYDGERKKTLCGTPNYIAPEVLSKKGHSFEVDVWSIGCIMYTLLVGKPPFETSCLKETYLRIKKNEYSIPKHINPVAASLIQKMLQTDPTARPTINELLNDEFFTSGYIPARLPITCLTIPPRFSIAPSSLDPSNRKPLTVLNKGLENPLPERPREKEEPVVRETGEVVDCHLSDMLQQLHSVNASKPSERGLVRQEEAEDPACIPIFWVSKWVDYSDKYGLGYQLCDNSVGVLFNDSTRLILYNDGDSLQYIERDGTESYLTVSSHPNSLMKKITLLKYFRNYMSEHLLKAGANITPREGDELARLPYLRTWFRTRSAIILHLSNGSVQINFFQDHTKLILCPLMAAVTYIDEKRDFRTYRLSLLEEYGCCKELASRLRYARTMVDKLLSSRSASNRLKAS

[27] = Effect on F-actin cytoskeleton in HEK293T cells at 10 uM incubated for 24 hrs by immunofluorescence based analysis; assay type: toxicity, cell-based; settings: human, hek-293t
CCRF-CEM = experiment: cells; settings: Homo sapiens
[28] = molecular target: Serine/threonine-protein kinase PLK3 (Homo sapiens, UniProt Q9H4B4); experiment: Inhibition of human PLK3 using ATF2 as substrate incubated for 40 mins in presence of [gamma-33P]ATP/Mg acetate by scintillation counting analysis
Chain of Serine/threonine-protein kinase PLK3 (Q9H4B4 whole entry): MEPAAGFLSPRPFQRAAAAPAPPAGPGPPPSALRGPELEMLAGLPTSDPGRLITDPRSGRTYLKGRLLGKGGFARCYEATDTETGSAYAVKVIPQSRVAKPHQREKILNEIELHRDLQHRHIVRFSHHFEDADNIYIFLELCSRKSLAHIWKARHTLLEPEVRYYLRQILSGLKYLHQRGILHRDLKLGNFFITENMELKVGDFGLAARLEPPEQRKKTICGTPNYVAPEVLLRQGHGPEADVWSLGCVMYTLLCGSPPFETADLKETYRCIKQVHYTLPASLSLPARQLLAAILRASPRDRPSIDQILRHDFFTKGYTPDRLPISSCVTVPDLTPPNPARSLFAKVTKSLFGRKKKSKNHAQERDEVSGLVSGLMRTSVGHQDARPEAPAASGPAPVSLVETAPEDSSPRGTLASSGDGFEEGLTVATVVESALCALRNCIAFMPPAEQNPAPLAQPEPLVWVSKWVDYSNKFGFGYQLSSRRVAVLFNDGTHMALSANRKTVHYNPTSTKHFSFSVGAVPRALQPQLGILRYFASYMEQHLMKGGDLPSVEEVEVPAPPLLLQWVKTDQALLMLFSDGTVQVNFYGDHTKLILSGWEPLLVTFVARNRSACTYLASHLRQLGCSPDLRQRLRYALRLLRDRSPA

HEK-293T [29] = experiment: Effect on mitochondrial membrane potential in HEK293T cells at 10 uM incubated for 24 hrs by MitoTracker Red probe based analysis; assay type: toxicity, cell-based; settings: human
[30] = Effect on mitochondrial membrane integrity in HEK293T cells at 10 uM incubated for 24 hrs by JC-1 dye based analysis; assay type: toxicity, cell-based; settings: human, hek-293t
[31] = molecular target: Voltage-gated inwardly rectifying potassium channel KCNH2 (Homo sapiens, UniProt Q12809); experiment: Inhibition of hERG transfected in CHO cells; assay type: toxicity, cell-based
Chain of Voltage-gated inwardly rectifying potassium channel KCNH2 (Q12809 whole entry): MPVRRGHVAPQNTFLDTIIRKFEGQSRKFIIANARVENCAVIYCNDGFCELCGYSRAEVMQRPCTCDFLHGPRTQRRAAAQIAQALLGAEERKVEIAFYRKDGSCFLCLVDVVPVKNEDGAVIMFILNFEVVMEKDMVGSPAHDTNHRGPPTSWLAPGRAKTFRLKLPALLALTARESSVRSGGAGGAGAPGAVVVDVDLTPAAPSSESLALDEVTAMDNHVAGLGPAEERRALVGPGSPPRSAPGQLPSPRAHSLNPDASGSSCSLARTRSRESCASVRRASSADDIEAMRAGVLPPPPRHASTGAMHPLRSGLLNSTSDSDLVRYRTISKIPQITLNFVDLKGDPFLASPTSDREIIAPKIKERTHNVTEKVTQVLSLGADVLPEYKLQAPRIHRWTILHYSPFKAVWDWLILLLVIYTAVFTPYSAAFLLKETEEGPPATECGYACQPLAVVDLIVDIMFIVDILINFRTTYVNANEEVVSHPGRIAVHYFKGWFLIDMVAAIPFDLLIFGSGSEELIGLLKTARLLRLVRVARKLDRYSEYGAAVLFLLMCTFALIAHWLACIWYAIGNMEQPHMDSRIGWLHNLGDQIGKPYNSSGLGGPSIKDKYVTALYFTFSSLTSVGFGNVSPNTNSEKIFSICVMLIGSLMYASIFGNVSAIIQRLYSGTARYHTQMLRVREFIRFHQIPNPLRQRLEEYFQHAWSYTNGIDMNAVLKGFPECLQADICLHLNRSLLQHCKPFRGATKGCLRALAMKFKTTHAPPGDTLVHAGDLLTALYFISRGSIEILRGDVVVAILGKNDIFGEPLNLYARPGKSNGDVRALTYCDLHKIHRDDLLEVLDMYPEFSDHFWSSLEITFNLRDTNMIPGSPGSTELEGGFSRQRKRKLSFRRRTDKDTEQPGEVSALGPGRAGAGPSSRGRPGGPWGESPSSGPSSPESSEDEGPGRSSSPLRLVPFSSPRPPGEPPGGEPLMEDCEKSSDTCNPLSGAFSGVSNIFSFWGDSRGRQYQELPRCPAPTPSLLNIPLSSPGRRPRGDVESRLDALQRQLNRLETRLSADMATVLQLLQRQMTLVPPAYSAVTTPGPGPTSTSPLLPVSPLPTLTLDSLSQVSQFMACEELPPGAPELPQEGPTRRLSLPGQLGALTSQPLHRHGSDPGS

[32] = Selectivity ratio of IC50 for inhibition of human PLK2 using ATF2 as substrate to IC50 for inhibition of human PLK1 using ATF2 as substrate
[33] = Solubility of compound in 0.01 M PBS at pH 7.4 assessed as fold increase equilibrated for 12 hrs by UV spectrophotometry relative to BI 2536; assay type: physicochemical; settings: buffer, pH 7.4, 12 h
[34] = Selectivity ratio of IC50 for inhibition of human PLK3 using ATF2 as substrate to IC50 for inhibition of human PLK1 using ATF2 as substrate
HL-60 = experiment: cells; settings: Homo sapiens
[35] = molecular target: Serine/threonine-protein kinase PLK2 (Homo sapiens, UniProt Q9NYY3); experiment: Inhibition of human PLK2 using ATF2 as substrate incubated for 40 mins in presence of [gamma-33P]ATP/Mg acetate by scintillation counting analysis
Chain of Serine/threonine-protein kinase PLK2 (Q9NYY3 whole entry): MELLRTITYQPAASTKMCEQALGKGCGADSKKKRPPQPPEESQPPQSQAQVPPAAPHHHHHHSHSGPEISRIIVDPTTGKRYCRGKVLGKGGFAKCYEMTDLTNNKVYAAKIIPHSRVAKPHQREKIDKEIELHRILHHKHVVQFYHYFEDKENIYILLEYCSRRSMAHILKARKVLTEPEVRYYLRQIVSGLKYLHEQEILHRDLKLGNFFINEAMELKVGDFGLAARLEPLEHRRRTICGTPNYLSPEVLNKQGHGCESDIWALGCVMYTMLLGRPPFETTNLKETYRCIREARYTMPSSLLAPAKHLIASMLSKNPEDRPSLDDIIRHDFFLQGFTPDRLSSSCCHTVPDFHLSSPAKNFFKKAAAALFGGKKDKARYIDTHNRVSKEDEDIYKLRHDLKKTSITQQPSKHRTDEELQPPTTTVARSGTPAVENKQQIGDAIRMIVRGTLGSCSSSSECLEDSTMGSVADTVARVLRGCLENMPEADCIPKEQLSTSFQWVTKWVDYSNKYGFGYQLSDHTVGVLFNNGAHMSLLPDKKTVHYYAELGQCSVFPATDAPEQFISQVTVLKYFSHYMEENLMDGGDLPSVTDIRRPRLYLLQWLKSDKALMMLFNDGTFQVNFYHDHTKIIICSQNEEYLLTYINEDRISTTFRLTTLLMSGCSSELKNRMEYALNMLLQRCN

A549 = experiment: cells; settings: Homo sapiens
PC-9 = experiment: cells; settings: Homo sapiens
SW-620 = experiment: cells; settings: Homo sapiens
[36] = Cytotoxicity against HEK293T cells assessed as inhibition of cell viability by CCK8 assay; assay type: toxicity, cell-based, HEK-293T; settings: human
NCI-H460 = experiment: cells; settings: Homo sapiens
HEK-293T [37] = experiment: Cytotoxicity against HEK293T cells by CCK8 assay; assay type: toxicity, cell-based; settings: human, dose 0.1-30 µM
[38] = Cytotoxicity against HEK293T cells assessed as cell viability at 30 uM by CCK8 assay relative to control; assay type: toxicity, cell-based, HEK-293T; settings: human, read-out: Activity

## CC[C@@H]1C(=O)N(C)c2cnc(Nc3ccc(C(=O)NC4CCN(C)CC4)cc3OC)nc2N1C1CCCC1 [BI-2536]
[1]
  Cmax: 175 ng/mL
[2]
  AUC(0-t): 89 ng·h/mL
[3]
  bioavailability: 8.2%
[4]
  half-life: 27.4 min
[5]
  microsomal CLint: 24.1 µL/min/mg
[6]
  CLint scaled: 126 mL/min/kg
[7]
  AUC(0-inf): 96 ng·h/mL
[8]
  Cmax: 40 ng/mL
[9]
  half-life: 84 min
[10]
  CLint scaled: 136 mL/min/kg
[11]
  Tmax: 25.2 min
[12]
  CLint scaled: 30.3 mL/min/kg
[13]
  microsomal CLint: 50.6 µL/min/mg
[14]
  half-life: 41.4 min
[15]
  clearance: 143 mL/min/kg
[16]
  half-life: 57.4 min
[17]
  Tmax: 4.98 min
[18]
  AUC(0-t): 116 ng·h/mL
[19]
  half-life: 40.2 min
[20]
  MRT last: 126 min
[21]
  Vd: 6 L/kg
[22]
  microsomal CLint: 34.5 µL/min/mg
[23]
  AUC(0-inf): 117 ng·h/mL
[24]
  C0: 227 ng/mL
[25]
  MRT last: 42 min

## CC[C@@H]1C(=O)N(C)c2cnc(Nc3cc(N4CCN(C)CC4)ccc3OCCCO)nc2N1C1CCCC1
[1]
  Cmax: 471 ng/mL
K562
  IC50: 0.67 nM
[2]
  AUC(0-t): 449 ng·h/mL
[3]
  bioavailability: 20%
KG-1
  IC50: > 10000 nM
[26]
  IC50: 20 nM
[27]
  Activity: Non-toxic
[7]
  AUC(0-inf): 452 ng·h/mL
CCRF-CEM
  IC50: 40 nM
[28]
  IC50: 3230 nM
HEK-293T [29]
  Activity: Non-toxic
[30]
  Activity: Non-toxic
[8]
  Cmax: 201 ng/mL
[31]
  IC50: 13300 nM
[9]
  half-life: 66 min
[32]
  ratio: 247
[33]
  fold change (FC): > 2
[34]
  ratio: 161
[11]
  Tmax: 25.2 min
HL-60
  IC50: 53 nM
[14]
  half-life: 40.8 min
[35]
  IC50: 4940 nM
[15]
  clearance: 73 mL/min/kg
[17]
  Tmax: 4.98 min
[18]
  AUC(0-t): 226 ng·h/mL
A549
  IC50: 154 nM
PC-9
  IC50: 164 nM
[20]
  MRT last: 108 min
[21]
  Vd: 2.5 L/kg
SW-620
  IC50: 217 nM
[36]
  IC50: 38200 nM
[23]
  AUC(0-inf): 228 ng·h/mL
[24]
  C0: 753 ng/mL
NCI-H460
  IC50: 32 nM
HEK-293T [37]
  Activity: Dose-dependent-effect
[25]
  MRT last: 34.8 min
[38]
  viability at 30 µM: 16.5%

## CC[C@@H]1C(=O)N(C)c2cnc(Nc3cc(N4CCN(C)CC4)cc(F)c3OCCO)nc2N1C1CCCC1
K562
  IC50: 5190 nM
KG-1
  IC50: > 10000 nM
[26]
  IC50: 11 nM
CCRF-CEM
  IC50: 64 nM
[28]
  IC50: 3220 nM
[32]
  ratio: > 952
[34]
  ratio: 306
HL-60
  IC50: 39 nM
[35]
  IC50: > 10000 nM
A549
  IC50: 57 nM
PC-9
  IC50: 82 nM
SW-620
  IC50: 6.8 nM
NCI-H460
  IC50: 76 nM
